According to ChEMBL document CHEMBL1201862, “PubChem BioAssay data set” (2004):
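Interpolation was linear, between the two tested concentrations surrounding the appropriate level; five concentrations were tested over 48 hours in 96-well plates. Abbreviation: GI50, concentration required for 50% inhibition of growth.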 Active and inactive are the calls of the source. No stated cut-off is given here; in the data, active = GI50 up to about 1.1 µM and inactive = higher.

Experiments:
Assay in all cases: growth of human tumour cells (NCI), 48 h
SF-295 = system: SF-295
ACHN = system: ACHN
RXF 393 = system: RXF 393
OVCAR-4 = system: OVCAR-4
CCRF-CEM = system: CCRF-CEM
HCT-116 = system: HCT-116
SK-MEL-2 = system: SK-MEL-2
LOX IMVI = system: LOX IMVI
NCI-H460 = system: NCI-H460
786-0 = system: 786-0
M14 = system: M14
MOLT-4 = system: MOLT-4
SK-MEL-28 = system: SK-MEL-28
HL-60 = system: HL-60
HCT-15 = system: HCT-15
NCI-H23 = system: NCI-H23
SK-OV-3 = system: SK-OV-3
TK-10 = system: TK-10
COLO 205 = system: COLO 205
SN12C = system: SN12C

## COc1c(CC(C)O)c2c3c(CC(C)O)c(OC)c(=O)c4c(O)cc5c(c6c(cc(O)c(c1=O)c62)OCO5)c43 (stereo unspecified) [CERCOSPORIN]
SF-295
  GI50: 1.91 µM (inactive)
ACHN
  GI50: 1.63 µM (inactive)
RXF 393
  GI50: 1.27 µM (inactive)
OVCAR-4
  GI50: 1.38 µM (inactive)
CCRF-CEM
  GI50: 2.72 µM (inactive)
HCT-116
  GI50: 1.39 µM (inactive)
SK-MEL-2
  GI50: 1.55 µM (inactive)
LOX IMVI
  GI50: 0.711 µM (active)
NCI-H460
  GI50: 0.45 µM (active)
786-0
  GI50: 2.66 µM (inactive)
M14
  GI50: 1.29 µM (inactive)
MOLT-4
  GI50: 1.75 µM (inactive)
SK-MEL-28
  GI50: 1.86 µM (inactive)
HL-60
  GI50: 0.968 µM (active)
HCT-15
  GI50: 1.56 µM
NCI-H23
  GI50: 1.4 µM (inactive)
SK-OV-3
  GI50: 4.14 µM (inactive)
TK-10
  GI50: 2.62 µM (inactive)
COLO 205
  GI50: 0.158 µM (active)
SN12C
  GI50: 1.57 µM (inactive)

## O=C1c2ccccc2C(=O)c2[nH]c(=O)c(/C=N/Nc3ccc([N+](=O)[O-])cc3)nc21
SF-295
  GI50: 3.32 µM (inactive)
ACHN
  GI50: 13.2 µM (inactive)
RXF 393
  GI50: 6.04 µM (inactive)
OVCAR-4
  GI50: 18.4 µM (inactive)
CCRF-CEM
  GI50: > 35.5 µM (inactive)
HCT-116
  GI50: 19.8 µM (inactive)
SK-MEL-2
  GI50: 3.86 µM (inactive)
LOX IMVI
  GI50: 3.56 µM (inactive)
NCI-H460
  GI50: 2.06 µM (inactive)
786-0
  GI50: 15.9 µM (inactive)
M14
  GI50: 2.01 µM (inactive)
MOLT-4
  GI50: 22.9 µM (inactive)
SK-MEL-28
  GI50: 5.47 µM (inactive)
HL-60
  GI50: 8.79 µM (inactive)
HCT-15
  GI50: 3.67 µM
NCI-H23
  GI50: 1.63 µM (inactive)
SK-OV-3
  GI50: 9.73 µM (inactive)
TK-10
  GI50: 16.1 µM (inactive)
COLO 205
  GI50: 7.98 µM (inactive)
SN12C
  GI50: 11.9 µM (inactive)

## CC1(C)OC2OC(COC(=O)C(c3ccccc3)c3ccccc3)C3OC(C)(C)OC3C2O1 (stereo unspecified)
SF-295
  GI50: 10.7 µM (inactive)
ACHN
  GI50: 29.7 µM (inactive)
RXF 393
  GI50: 12.3 µM (inactive)
OVCAR-4
  GI50: 8.71 µM (inactive)
CCRF-CEM
  GI50: 17.1 µM (inactive)
HCT-116
  GI50: > 10 µM (inactive)
SK-MEL-2
  GI50: 46.8 µM (inactive)
LOX IMVI
  GI50: 9.68 µM (inactive)
NCI-H460
  GI50: 4.84 µM (inactive)
786-0
  GI50: 24.7 µM (inactive)
M14
  GI50: 93.1 µM (inactive)
MOLT-4
  GI50: 5.02 µM (inactive)
SK-MEL-28
  GI50: 43.5 µM (inactive)
HL-60
  GI50: 4.21 µM (inactive)
HCT-15
  GI50: 6.73 µM
NCI-H23
  GI50: 20.1 µM (inactive)
SK-OV-3
  GI50: > 10 µM (inactive)
TK-10
  GI50: > 10 µM (inactive)
COLO 205
  GI50: 31 µM (inactive)
SN12C
  GI50: 90.2 µM (inactive)

## Cn1c(=O)c2[nH]c(/N=N/N3CCN(CCO)CC3)nc2n(C)c1=O
SF-295
  GI50: > 100 µM (inactive)
ACHN
  GI50: > 100 µM (inactive)
RXF 393
  GI50: > 100 µM (inactive)
OVCAR-4
  GI50: > 100 µM (inactive)
CCRF-CEM
  GI50: > 100 µM (inactive)
HCT-116
  GI50: > 100 µM (inactive)
SK-MEL-2
  GI50: > 100 µM (inactive)
LOX IMVI
  GI50: > 100 µM (inactive)
NCI-H460
  GI50: > 100 µM (inactive)
786-0
  GI50: > 100 µM (inactive)
M14
  GI50: > 100 µM (inactive)
MOLT-4
  GI50: > 100 µM (inactive)
SK-MEL-28
  GI50: > 100 µM (inactive)
HL-60
  GI50: > 100 µM (inactive)
HCT-15
  GI50: > 100 µM
NCI-H23
  GI50: > 100 µM (inactive)
SK-OV-3
  GI50: > 100 µM (inactive)
TK-10
  GI50: > 100 µM (inactive)
COLO 205
  GI50: > 100 µM (inactive)
SN12C
  GI50: > 100 µM (inactive)

## CC12C3C4C1C1C2C3C41CO (stereo unspecified)
SF-295
  GI50: > 100 µM (inactive)
ACHN
  GI50: > 100 µM (inactive)
RXF 393
  GI50: > 100 µM (inactive)
OVCAR-4
  GI50: > 100 µM (inactive)
CCRF-CEM
  GI50: > 100 µM (inactive)
HCT-116
  GI50: > 100 µM (inactive)
SK-MEL-2
  GI50: > 100 µM (inactive)
LOX IMVI
  GI50: > 100 µM (inactive)
NCI-H460
  GI50: > 100 µM (inactive)
786-0
  GI50: > 100 µM (inactive)
M14
  GI50: > 100 µM (inactive)
MOLT-4
  GI50: > 100 µM (inactive)
SK-MEL-28
  GI50: > 100 µM (inactive)
HL-60
  GI50: > 100 µM (inactive)
HCT-15
  GI50: > 100 µM
SK-OV-3
  GI50: > 100 µM (inactive)
TK-10
  GI50: > 100 µM (inactive)
COLO 205
  GI50: > 100 µM (inactive)
SN12C
  GI50: > 100 µM (inactive)

## Cc1c2cc[n+](C)cc2c(C)c2c1[nH]c1ccccc12
SF-295
  GI50: 0.237 µM (active)
ACHN
  GI50: 12.8 µM (inactive)
RXF 393
  GI50: 1.7 µM (inactive)
OVCAR-4
  GI50: 2.03 µM (inactive)
CCRF-CEM
  GI50: 2.25 µM (inactive)
HCT-116
  GI50: 3.76 µM (inactive)
SK-MEL-2
  GI50: 1.28 µM (inactive)
LOX IMVI
  GI50: 6.59 µM (inactive)
NCI-H460
  GI50: 1.89 µM (inactive)
M14
  GI50: 7.45 µM (inactive)
MOLT-4
  GI50: 0.861 µM (active)
SK-MEL-28
  GI50: 1.62 µM (inactive)
HL-60
  GI50: 8.69 µM (inactive)
NCI-H23
  GI50: 0.773 µM (active)
SK-OV-3
  GI50: 4.88 µM (inactive)
TK-10
  GI50: 27.2 µM (inactive)
COLO 205
  GI50: 0.538 µM (active)
SN12C
  GI50: 0.172 µM (active)

## COc1ccc(CC2COc3cc(O)cc(O)c3C2=O)cc1O (stereo unspecified)
SF-295
  GI50: 4.3 µM (inactive)
ACHN
  GI50: 24.4 µM (inactive)
RXF 393
  GI50: 24.5 µM (inactive)
OVCAR-4
  GI50: 11.8 µM (inactive)
CCRF-CEM
  GI50: 3.4 µM (inactive)
SK-MEL-2
  GI50: 3.81 µM (inactive)
LOX IMVI
  GI50: 8.83 µM (inactive)
NCI-H460
  GI50: 6.15 µM (inactive)
786-0
  GI50: 9.75 µM (inactive)
M14
  GI50: 3.86 µM (inactive)
MOLT-4
  GI50: 4.3 µM (inactive)
SK-MEL-28
  GI50: 3.75 µM (inactive)
HL-60
  GI50: 2.4 µM (inactive)
HCT-15
  GI50: 3.16 µM
NCI-H23
  GI50: 16.6 µM (inactive)
SK-OV-3
  GI50: 5.64 µM (inactive)
TK-10
  GI50: 15.4 µM (inactive)
COLO 205
  GI50: 20.4 µM (inactive)
SN12C
  GI50: 8.34 µM (inactive)
